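48-hour exposure; five concentrations; linearly interpolated endpoints. GI50 = concentration required for 50% inhibition of growth. Definition used: TGI = concentration required for complete inhibition of growth.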 Where a SMILES comes first, the peptide text is derived from it. The star is where a group is joined. Boc = CC(C)(C)OC(=O)*
What was measured:
Assay in all cases: DTP human tumour cell line panel, 48 h
K-562 leukemia = test system: K-562 leukemia
786-0 renal = test system: 786-0 renal
SR leukemia = test system: SR leukemia
HS 578T breast = test system: HS 578T breast
OVCAR-8 ovarian = test system: OVCAR-8 ovarian
UACC-257 melanoma = test system: UACC-257 melanoma
CCRF-CEM leukemia = test system: CCRF-CEM leukemia
SK-MEL-5 melanoma = test system: SK-MEL-5 melanoma
SW-620 colon = test system: SW-620 colon
HCC-2998 colon = test system: HCC-2998 colon

O=S(=O)(O)c1ccc2c(N=Nc3ccccc3Cl)c(O)ccc2c1
TGI (K-562 leukemia): > 100 µM
TGI (786-0 renal): > 100 µM
TGI (SR leukemia): > 100 µM
TGI (HS 578T breast): > 100 µM
TGI (OVCAR-8 ovarian): > 100 µM
TGI (UACC-257 melanoma): > 100 µM
TGI (CCRF-CEM leukemia): > 100 µM
TGI (SK-MEL-5 melanoma): > 100 µM
TGI (SW-620 colon): > 100 µM

COc1ccc(N=C2C(=Nc3ccc(OC)cc3)N(S(=O)(=O)c3ccccc3)C(=S)N2c2ccc(OC)cc2)cc1
TGI (K-562 leukemia): > 100 µM
TGI (786-0 renal): > 100 µM
TGI (SR leukemia): > 100 µM
TGI (HS 578T breast): > 100 µM
TGI (HCC-2998 colon): > 100 µM
TGI (OVCAR-8 ovarian): > 100 µM
TGI (SK-MEL-5 melanoma): > 100 µM
TGI (SW-620 colon): > 100 µM

O=C(NCCCCNCCCNC(=O)c1cc(-c2ccccc2)nc2ccccc12)c1cc(-c2ccccc2)nc2ccccc12
TGI (786-0 renal): 3.03 µM
TGI (SR leukemia): 6.09 µM
TGI (HCC-2998 colon): 3.09 µM
TGI (OVCAR-8 ovarian): 3.06 µM
TGI (UACC-257 melanoma): 3.36 µM
TGI (SK-MEL-5 melanoma): 2.75 µM
TGI (SW-620 colon): 3.1 µM

NC12CC3CC4C1CC1CC2C(C3)C4(N)C1
TGI (K-562 leukemia): > 100 µM
TGI (786-0 renal): > 100 µM
TGI (HS 578T breast): > 100 µM
TGI (OVCAR-8 ovarian): > 100 µM
TGI (UACC-257 melanoma): > 100 µM
TGI (CCRF-CEM leukemia): > 100 µM
TGI (SK-MEL-5 melanoma): > 100 µM
TGI (SW-620 colon): > 100 µM

COC(=O)c1ccc(CCc2cc(O)c(Br)cc2O)cc1
TGI (786-0 renal): 27.5 µM
TGI (SR leukemia): 14.4 µM
TGI (HS 578T breast): > 100 µM
TGI (HCC-2998 colon): 32.9 µM
TGI (OVCAR-8 ovarian): 30.9 µM
TGI (UACC-257 melanoma): 30.9 µM
TGI (CCRF-CEM leukemia): 5.78 µM
TGI (SK-MEL-5 melanoma): 23.7 µM
TGI (SW-620 colon): 30.5 µM

COc1cc(/C=C/C(=O)N[C@@H]2C(=O)N3[C@@H]2SC(C)(C)[C@@H]3C(=O)O)cc(OC)c1OC
TGI (K-562 leukemia): > 100 µM
TGI (786-0 renal): > 100 µM
TGI (HS 578T breast): > 100 µM
TGI (HCC-2998 colon): > 100 µM
TGI (OVCAR-8 ovarian): > 100 µM
TGI (UACC-257 melanoma): > 100 µM
TGI (CCRF-CEM leukemia): > 100 µM
TGI (SK-MEL-5 melanoma): > 100 µM
TGI (SW-620 colon): > 100 µM

CSc1nncc2[nH]cnc12
TGI (K-562 leukemia): > 100 µM
TGI (786-0 renal): > 100 µM
TGI (SR leukemia): > 100 µM
TGI (HS 578T breast): > 100 µM
TGI (OVCAR-8 ovarian): > 100 µM
TGI (UACC-257 melanoma): > 100 µM
TGI (CCRF-CEM leukemia): > 100 µM
TGI (SK-MEL-5 melanoma): > 100 µM
TGI (SW-620 colon): > 100 µM

O=c1c(-c2ccccc2Cl)coc2cc(F)ccc12
TGI (786-0 renal): > 100 µM
TGI (HS 578T breast): > 100 µM
TGI (OVCAR-8 ovarian): > 100 µM
TGI (UACC-257 melanoma): > 100 µM
TGI (CCRF-CEM leukemia): > 100 µM
TGI (SK-MEL-5 melanoma): > 100 µM
TGI (SW-620 colon): > 100 µM

CCc1n[nH]c(=O)n1NC(=O)c1ccccc1C(=O)O
TGI (K-562 leukemia): > 100 µM
TGI (786-0 renal): > 100 µM
TGI (SR leukemia): > 100 µM
TGI (HCC-2998 colon): > 100 µM
TGI (OVCAR-8 ovarian): > 100 µM
TGI (UACC-257 melanoma): > 100 µM
TGI (CCRF-CEM leukemia): > 100 µM
TGI (SK-MEL-5 melanoma): > 100 µM
TGI (SW-620 colon): > 100 µM

O=C(/C=C\Nc1ccccc1O)C(Cl)(Cl)Cl
TGI (K-562 leukemia): > 100 µM
TGI (786-0 renal): 64.7 µM
TGI (HS 578T breast): > 100 µM
TGI (HCC-2998 colon): 52.6 µM
TGI (OVCAR-8 ovarian): > 100 µM
TGI (UACC-257 melanoma): > 100 µM
TGI (CCRF-CEM leukemia): > 100 µM
TGI (SK-MEL-5 melanoma): > 100 µM
TGI (SW-620 colon): > 100 µM

Cc1cc(O)c(/C=N/c2nc(-c3cccc([N+](=O)[O-])c3)cs2)c(=O)o1
TGI (786-0 renal): > 100 µM
TGI (HCC-2998 colon): > 100 µM
TGI (OVCAR-8 ovarian): > 100 µM
TGI (UACC-257 melanoma): > 100 µM
TGI (SK-MEL-5 melanoma): > 100 µM
TGI (SW-620 colon): > 100 µM

NC(Cc1c[nH]c2ccccc12)C(=O)O (stereo not drawn)
TGI (K-562 leukemia): > 189 µM
TGI (HCC-2998 colon): > 300 µM
TGI (OVCAR-8 ovarian): > 248 µM
TGI (UACC-257 melanoma): > 300 µM
TGI (CCRF-CEM leukemia): > 300 µM
TGI (SK-MEL-5 melanoma): > 300 µM
TGI (SW-620 colon): > 300 µM

COc1ccc(Cl)cc1NC(=O)c1c(NC(=O)C(F)(F)C(F)(F)F)sc2c1CCCCC2
GI50 (K-562 leukemia): 0.663 µM
TGI (K-562 leukemia): > 100 µM
GI50 (SR leukemia): 1.23 µM
TGI (SR leukemia): > 100 µM
GI50 (HS 578T breast): 1.37 µM
TGI (HS 578T breast): 7.54 µM
GI50 (HCC-2998 colon): 1.88 µM
TGI (HCC-2998 colon): > 100 µM
GI50 (OVCAR-8 ovarian): 2.02 µM
TGI (OVCAR-8 ovarian): > 100 µM
GI50 (CCRF-CEM leukemia): 0.769 µM
TGI (CCRF-CEM leukemia): > 100 µM
GI50 (SK-MEL-5 melanoma): 0.242 µM
TGI (SK-MEL-5 melanoma): 0.585 µM
GI50 (SW-620 colon): 1.93 µM
TGI (SW-620 colon): > 100 µM

CCOCC(NC(=O)C(CC(C)C)NC(=O)OC(C)(C)C)C(N)=O (stereo not drawn) (Boc-Leu-Ser(Et)-NH2; configuration not given here)
TGI (786-0 renal): > 100 µM
TGI (HS 578T breast): > 100 µM
TGI (OVCAR-8 ovarian): > 100 µM
TGI (UACC-257 melanoma): > 100 µM
TGI (CCRF-CEM leukemia): > 100 µM
TGI (SK-MEL-5 melanoma): > 100 µM
TGI (SW-620 colon): 3.27 µM

CC(NC(=O)C(N)CC(=O)O)NC(=O)N1CCOCC1 (stereo not drawn)
TGI (K-562 leukemia): > 100 µM
TGI (786-0 renal): > 100 µM
TGI (HS 578T breast): > 100 µM
TGI (OVCAR-8 ovarian): > 100 µM
TGI (UACC-257 melanoma): > 100 µM
TGI (CCRF-CEM leukemia): > 100 µM
TGI (SK-MEL-5 melanoma): > 100 µM
TGI (SW-620 colon): > 100 µM

COc1ccc2c(c1)CCCN1CCc3cc(OC)c(OC)cc3C21 (stereo not drawn)
TGI (K-562 leukemia): > 100 µM
TGI (786-0 renal): > 100 µM
TGI (SR leukemia): > 100 µM
TGI (HCC-2998 colon): > 100 µM
TGI (OVCAR-8 ovarian): > 100 µM
TGI (UACC-257 melanoma): > 100 µM
TGI (CCRF-CEM leukemia): > 100 µM
TGI (SK-MEL-5 melanoma): > 100 µM
TGI (SW-620 colon): > 100 µM

O=c1c(O)c(-c2cc(O)c(O)cc2O)oc2cc(O)c(C3OC(CO)C(O)C(O)C3O)c(O)c12 (stereo not drawn)
TGI (K-562 leukemia): > 100 µM
TGI (786-0 renal): > 100 µM
TGI (SR leukemia): > 100 µM
TGI (HS 578T breast): > 100 µM
TGI (OVCAR-8 ovarian): > 100 µM
TGI (UACC-257 melanoma): > 100 µM
TGI (SW-620 colon): > 100 µM

CC12CC3(O)OC(O1)C1(COC(=O)c4ccccc4)C3CC21OC1OC(CO)C(O)C(O)C1O (stereo not drawn)
TGI (786-0 renal): > 100 µM
TGI (SR leukemia): > 100 µM
TGI (HS 578T breast): > 100 µM
TGI (HCC-2998 colon): > 100 µM
TGI (OVCAR-8 ovarian): > 100 µM
TGI (UACC-257 melanoma): > 100 µM
TGI (CCRF-CEM leukemia): > 100 µM
TGI (SK-MEL-5 melanoma): > 100 µM
TGI (SW-620 colon): > 100 µM
